Measured values reported in PMC3289549 (Biochemistry, 2011).
“Also recorded” adds a separate entry of the source. Like-named read-outs stand apart in the source and are kept apart here.

Columns and labels:
Pin1 [1] = target: T1, Pin1 (Homo sapiens, UniProt Q13526); experiment: α-chymotrypsin protease-coupled Pin1 inhibition assay; type: biochemical; conditions: for IC50: protease-coupled assay, substrate succinyl–Ala–Glu–cis-Pro–Phe–pNA, 4 °C, duplicate
Aqueous solubility = type: physicochemical; conditions: qualitative
Pin1 [2] = target: T1, Pin1; conditions: cited from earlier work
Pin1 [3] = target: T1, Pin1; conditions: cited from earlier work; remark: listed apart in the source

T1 sequence (Q13526 whole entry): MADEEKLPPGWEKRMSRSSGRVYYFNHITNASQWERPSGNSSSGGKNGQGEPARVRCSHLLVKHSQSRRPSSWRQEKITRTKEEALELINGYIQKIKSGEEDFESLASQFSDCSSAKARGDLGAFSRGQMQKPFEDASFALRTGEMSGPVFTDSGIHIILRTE

In the case of CC(=O)N[C@@H](COP(=O)(O)O)CN1CCCCC1C(=O)NCCc1c[nH]c2ccccc12 (mixture of isomers) [Compound 4a, Ac–pSer–Ψ[CH2N]-(R/S)Pip ^a–tryptamine], the IC50 (Pin1 [1]) is reported as 16 ± 2 µM and the “fold more potent than diastereomer 4b” value (Pin1 [1]; ratio of IC50 values vs 4b) is reported as “approximately 12 fold”.

CC(=O)N[C@@H](COP(=O)(O)O)CN1CCCCC1C(=O)NCCc1c[nH]c2ccccc12 (mixture of isomers) [Compound 4b, Ac–pSer–Ψ[CH2N]-(R/S)Pip ^a–tryptamine] gave an IC50 (Pin1 [1]) of 189 ± 17 µM.

For O=C(N[C@@H](COP(=O)(O)O)CN1CCC[C@H]1C(=O)NCCc1c[nH]c2ccccc12)OCC1c2ccccc2-c2ccccc21 [Compound 1, Fmoc–pSer–Ψ[CH2N]-Pro–tryptamine], the aqueous solubility (Aqueous solubility) was “very poor”, the IC50 (Pin1 [1]) was 6.3 ± 0.4 µM and the “fold better inhibition than compound 3” value (Pin1 [1]; ratio of IC50 values vs 3) was 5 fold.

In the case of CC(OP(=O)(O)O)C(CN1CCCC1C(=O)NCCc1c[nH]c2ccccc12)NC(=O)OCC1c2ccccc2-c2ccccc21 (stereo not shown) [Compound 3, Fmoc–pThr–Ψ[CH2N]-Pro–tryptamine], the IC50 (Pin1 [1]) is reported as 30 ± 2 µM.

For O=C(NC(C=C1CCCC1C(=O)NCCc1c[nH]c2ccccc12)COP(=O)(O)O)OCC1c2ccccc2-c2ccccc21 (stereo not shown) [Fmoc-pSer–Ψ[(Z)CH=C]Pro–2-(indol-3-yl)-ethylamine], the IC50 (Pin1 [2]; similarly substituted ground-state (cis-alkene) analogue) is given as 28.3 µM.

For “Ac–Lys(N-biotinoyl)–Ala–Ala–Bth–D-Thr(PO3H2)–Pip–Nal–Gln–NH2”, the Ki (Pin1 [3]) is listed as 0.00021 µM.

With “Ac–pSer–Ψ[CH2N]-Pro–tryptamine [Compound 2]” the aqueous solubility (Aqueous solubility) was “improved aqueous solubility; also recorded: improved the water solubility”, the IC50 (Pin1 [1]) was 12 ± 2 µM and the “fold less potent than inhibitor 1” value (Pin1 [1]; ratio of IC50 values vs 1) was 2 fold. The “fold better than the similarly substituted ketone” value (Pin1 [1]; ratio of IC50 values vs Ac–pSer–Ψ[COCH]-Pip–2-(indol-3-yl)-ethylamine) was 5 fold and the “fold better than the similarly substituted α-ketoamide inhibitor” value (Pin1 [1]; ratio of IC50 values vs Ac–pSer–Ψ[COCON]-Pro–2-(naphth-2-yl)-ethylamine) was 6 fold.

In the case of “Ac–pSer–Ψ[COCH]-Pip–2-(indol-3-yl)-ethylamine”, the IC50 (Pin1 [2]; similarly substituted ketone) is given as 61 µM.

For “Ac–pSer–Ψ[COCON]-Pro–2-(naphth-2-yl)-ethylamine”, the IC50 (Pin1 [2]; similarly substituted α-ketoamide inhibitor) is given as 100 µM.
